These results are taken from patent US5834514A, “Halomethyl amides as IL-1β protease inhibitors” (Vertex Pharmaceuticals, Incorporated, priority 1996, dated 1998).

One assay has as its target T1, IL-1β protease (Homo sapiens, UniProt P29466).
T1 sequence (P29466 120-297 limits assumed): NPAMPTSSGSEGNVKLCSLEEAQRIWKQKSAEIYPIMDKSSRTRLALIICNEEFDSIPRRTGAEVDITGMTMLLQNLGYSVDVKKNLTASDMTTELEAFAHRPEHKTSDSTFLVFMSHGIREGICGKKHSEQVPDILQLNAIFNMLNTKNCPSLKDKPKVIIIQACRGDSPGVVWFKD
Briefly: In vitro IL-1β protease inhibition (HPLC, TRITC-AYVHDAPVRS-NH2 substrate). Format: biochemical. The conditions noted are these: 15 min preincubation, 60 min at 37° C., 67 μM substrate. As to the method: Compounds of the present invention were tested for IL-1β protease inhibition activity according to the following protocols:
Partially purified IL-1β protease is stored at -80° C., thawed on ice, and preincubated for 10 minutes at 37° C. with 2.5 mM dithiothreitol in a buffer solution containing 10 mM Tris-HCl (pH 8.0) and 25% (v/w) glycerol. Inhibitors are prepared as stock solutions in dimethyl sulfoxide (DMSO). The protease is preincubated with inhibitor in a volume of 20 μL in a 1.5 mL polypropylene microcentrifuge tube for 15 minutes at 37° C. The volume of compound added to the assay is adjusted to yield a DMSO concentration in the preincubation of <15% (v/v). The enzyme assay is then initiated by the addition of substrate (TRITC-AYVHDAPVRS-NH2) (SEQ I.D. No. 1) [drawing 5] to yield a final concentration of 67 μM in a final volume of 30 μL. The reaction are carried out for 60 minutes at 37° C. in the dark and are terminated by the addition of […] (TFA). Following the addition of 115 μL of 0.1 % TFA, the samples are analyzed by high pressure liquid chromatography using a reverse phase (C18) column and elution with an acetonitrile/water/TFA gradient. Substrate and product are monitored by their absorbance at 550 nm and elute at 4.2 and 5.2 minutes, respectively.

Assay [1] deals with release of mature IL-1β, human monocytes. In words: "In vivo" human monocyte pulse chase assay, inhibition of release of mature IL-1β. Type of assay: cell-based. The note with it: fixed S. aureus stimulation, 2-3 donors. As to the method:
In vivo inhibition (IC50) was determined as follows:
Human monocytes were isolated from heparinized leukopheresis units obtained through Biological Specialty Corporation (Lansdale, Pa.). Monocytes were purified by Ficoll-Hupaque (Pharmacia Fine Chemicals, Piscataway, N.J.) gradient centrifugation and more than 95% pure monocyte populations obtained by centrifugal elutriation. The assay was performed on duplicate samples of freshly isolated human monocytes, cultured in suspension at 37° C. and rotated gently in conical bottom polypropylene tubes (Sardstedt Inc., Princeton, N.J.). Human monocytes at a concentration of 5×10^6 cells/mL were resuspended in 1 mL of RPMI 1640 (a common tissue buffer from M.A. Bioproducts, Walkersville, Md.) containing 1% fetal calf serum (FCS) (HyClone, Logan, Utah) and 50 μg/mL gentamycin (Gibco, Grand Island, N.Y.). The cells were treated either with a compound of the invention (i.e. test compound) or with a non-inhibitor (control compound, typically 0.03% DMSO) for 15 minutes and then activated with 0.01% fixed Staphylococcus aureus (The Enzyme Center, Malden, Mass.) for 1 hour. […]
In the monocyte pulse chase assay, each test parameter was run in duplicate. […] When test compounds were evaluated, the percent inhibition of release of mature IL-1β was calculated as follows: […]

In another assay the test system is colon. The conditions noted are these: ulcerative colitis model; cited from earlier work.
A further assay has as its system rats. The conditions noted are these: PG-APS model of arthritis in rats; cited from earlier work.
The test system of assay [2] is Patients with Rheumatoid Arthritis. The note with it: small open-label human trial; cited from earlier work.
Assay [3] deals with chronic myelogenous leukemia cells. The note with it: cells removed from leukemia patients (CML); cited from earlier work.
The subject of assay [4] is Acute Myelogenous Leukemia Blast. The note with it: AML; cited from earlier work.

Consider `C=CCN(Cc1ccc(Cl)cc1Cl)C(=O)CCl` [Example 1], for which the 50% inhibitory concentration (IC50) against IL-1β protease was ≤ 1 µM; in assay [1] it was < 10 µM.
On to “IL-1 ra: naturally occurring IL-1β receptor antagonist”, for which, in the assay on colon, the “tissue necrosis and number of inflammatory cells in the colon” value is “reduced tissue necrosis and the number of inflammatory cells in the colon”. Also, the joint swelling entry in the assay on rats is reported as “supresses joint swelling”. Further, the “efficacy in Rheumatoid Arthritis trial” value in assay [2] is “shows efficacy”. The “inhibition of colony growth” value in assay [3] is given as “inhibit colony growth”. Further, the “inhibition of Acute Myelogenous Leukemia Blast Proliferation” value in assay [4] is listed as “Inhibition of Acute Myelogenous Leukemia Blast Proliferation”.
